From patent US20230390401A1, “RAPIDLY RELEASED BIOORTHOGONAL CAGING GROUPS” (University of Utah Research Foundation, priority 2018, published 2023)
Where two headings read alike, the source gives them in different places.

Columns and labels:
[1] = Kinetics of Tz-induced release from ICPr/ICPrc groups in PBS:DMSO; settings: for k1,elim, release of fluorophore from 3-oxopropyl intermediate: in PBS, after reaction with PEG-DPTz; for bimolecular rate constant k2: PEG-DPTz c=0.2 mM, excess probe c=2 mM, T=37° C., PBS:DMSO (9:1), pseudo-first order fit
Protocol: (§1) Fitting the disappearance of PEG-DPTz (c=0.2 mM) absorbance in the presence of excess ICPr-O-NA or ICPrc-NH-NA (c=2 mM;T=37° C., PBS:DMSO (9:1)) to a pseudo-first order rate equation provided the bimolecular rate constants k2(ICPr-O-NA)=4.0±0.2 M^−1s^−1 and k2(ICPrc-NH-NA)=1.1±0.2 M^−1s^−1, respectively. Release of the fluorophores in PBS from the postulated 3-oxopropyl intermediate was delayed relative to the reaction of the ICPr/ICPrc-groups with PEG-DPTz (k1,elim(HO-NA)=1.6×10^−4 s^−1; k1,elim(H2N-NA)=5.00×10^−5 s^−1; FIG. 4B, right column) in agreement with studies of cargo release from such groups. The aldehyde intermediate was detectable by NMR in DMSO-d6:D2O (9:1). To our delight, fluorophore release in diluted human serum (T=37° C., PBS:serum (1:1)) reached completion in few minutes because serum albumin can catalyze the β-elimination reaction.

[2] = Fluorophore release (β-elimination) in diluted human serum; settings: T=37° C., PBS:serum (1:1)
Protocol: as §1

[3] = Stability in serum in the absence of Tz; assay type: in vitro ADME, human
[4] = tested on: zebrafish embryos; experiment: In vivo uncaging of resorufin fluorescence in zebrafish embryos implanted with Tz-PS beads; settings: c=10 μM, t=8 h, Tz-PS implanted into yolk sacs
[5] = tested on: A549 lung cancer cells; experiment: Cytotoxicity assay (CellTiter-Glo 2.0 viability)
Protocol: A549 lung cancer cells (ATCC, USA) were maintained in a humidified CO2 (5%) incubator at 37° C. in RPMI (Thermo Fisher, USA) supplemented with 10% fetal bovine serum in the presence of 1% Penicillin-Streptomycin-Glutamine (Thermo Fisher, USA) and 0.2% Normocin (InvivoGen, USA).
The cells were plated in 96-well TC treated plates (PerkinElmer, USA) at a 6,000 cells/well density 24 h prior to the addition of the drugs. All drugs, prodrugs and PEG-DPTz in DMSO stock solution were serially diluted in pre-warmed culture medium at 37° C. For samples assessing the reaction-induced drug release, prodrugs were added to the cells first (100 μL final volume per well) in a series of final concentrations ranging from 0.005 to 10 μM followed by addition of PEG-DPTz (20, 40 and 80 μM).
After 72 h incubation at 37° C., cell proliferation was assessed by a CellTiter-Glo©2.0 viability assay according to the manufacturer's instructions. After 15 min incubation at 25° C., the medium was gently measured with Envision 2104 Multilabel Reader (PerkinElmer, USA) to get the luminescent based on quantitation of the ATP present, an indicator of metabolically active cells. The proliferation assay was performed in quadruplet measurements (n=4). EC50 values were derived from the normalized cell growth and Growth/Sigmoidal formula were fitted and generated with Origin 8.0. […] The results are expressed as the mean±standard deviation (n=4).

[6] = tested on: zebrafish embryos; settings: medium c=0, 1, 10 μM, t=8 h
Protocol: Zebrafish embryos were used as a model organism to evaluate the activity of uncaged payload molecules in vivo. […] For the fluorescence study, Tz-PSs were implanted into the yolk sacs of zebrafish embryos followed by incubation with ICPr-rsf (c=10 μM). […] Mexiletine is a voltage-gated sodium channel blocker known to induce cardiac arrhythmia, and which has been reported to decrease heart rate.
UV-VIS photospectrometic kinetic measurements were performed on a microplate reader SpectramaX M5 (Molecular Device, USA) in 96-well plates or 1 mL quartz cuvette. Cell proliferation assays were performed on an Envision 2104 Multilabel Reader (PerkinElmer, USA). Zebrafish Imaging and Efficiency Test (Heart Rate Reduction) were performed with Zeiss SteREO Discovery.V8 microscope (Zeiss, Jena, Germany) fitted with a PentaFluor S 120 vertical illuminator and coupled with an Xcite Series 120PC light source.

[7] = read-out: EC50 cytotoxicity, prodrug combined with PEG-DPTz, A549 cells, prodrug + excess PEG-DPTz (c=80 μM), 72 h

COCCOCCOCCOCCN1C(=O)c2cccc3c(O)ccc(c23)C1=O [HO-NA, N-(methyl-PEG4)-4-hydroxy-1,8-naphthalimide]
k1,elim, release of fluorophore from 3-oxopropyl intermediate [1]: 0.00016 s⁻¹

[C-]#[N+]CCCOc1ccc2c3c(cccc13)C(=O)N(CCOCCOCCOCCOC)C2=O [ICPr-O-NA, N-(methyl-PEG4)-4-(3-isocyanopropyl-1-oxy)-1,8-naphthalimide]
apparent first-order rate constant k1,elim in serum [2]: 0.0042 s⁻¹ | stability in serum [3]: completely stable in serum for at least three days | bimolecular rate constant k2 [1]: 4.0 ± 0.2 M⁻¹ s⁻¹

[C-]#[N+]CCCOc1ccc2nc3ccc(=O)cc-3oc2c1 [ICPr-rsf, 3-isocyanopropyl resorufin ether]
fluorescence staining, fish with Tz-PS versus controls with unmodified beads [4]: 5.2 fold

[C-]#[N+]CCCOC(=O)Nc1ccc2c3c(cccc13)C(=O)N(CCOCCOCCOCCOC)C2=O [ICPrc-NH-NA]
apparent first-order rate constant k1,elim in serum [2]: 0.0016 s⁻¹ | bimolecular rate constant k2 [1]: 1.1 ± 0.2 M⁻¹ s⁻¹

[C-]#[N+]CCCOC(=O)NC1CC(OC2CC(O)(C(=O)CO)Cc3c(O)c4c(c(O)c32)C(=O)c2c(OC)cccc2C4=O)OC(C)C1O (centres unmarked) [ICPrc-dox, N-(3-isocyanopropyl-1-carbamoyl)doxorubicin]
EC50 [5, 7]: 165 ± 35 nM

[C-]#[N+]CCCOC(=O)NC(C)COc1c(C)cccc1C (centres unmarked) [ICPrc-mex, N-(3-isocyanopropyl-1-carbamoyl)mexiletine]
heart rate in control fish bearing unmodified beads [6]: no changes were observed | heart rate in fish with implanted Tz-PS ([6]; normalized to heart rate at t=0 h): dose-dependent decrease in heart rate

[C-]#[N+]CCCOC(=O)N1C2CN3C4=C(C(=O)C(N)=C(C)C4=O)C(COC(N)=O)C3(OC)C21 (centres unmarked) [ICPrc-mmC, N-(3-isocyanopropyl-1-carbamoyl)Mitomycin C]
EC50 [5, 7]: 244 ± 17 nM

COCCOCCOCCOCCN1C(=O)c2cccc3c(N)ccc(c23)C1=O [Structure H2N-NA, N-(methyl-PEG4)-4-amino-1,8-naphthalimide]
k1,elim, release of fluorophore from 3-oxopropyl intermediate [1]: 5e-05 s⁻¹

COc1cccc2c1C(=O)c1c(O)c3c(c(O)c1C2=O)C[C@@](O)(C(=O)CO)C[C@@H]3O[C@H]1C[C@H](N)[C@H](O)[C@H](C)O1 [dox, doxorubicin, reference compound]
EC50 ([5]; Homo sapiens, A549, 72 h, read-out: EC50 cytotoxicity, free drug): 144 ± 28 nM

N-(methyl-PEG4)-4-(3-isocyanopropyl-carbamoyl)amino-1,8-naphthalimide [ICPrc-NH-NA]
stability in serum [3]: completely stable in serum for at least three days
